Measurements taken from US5196418A, “Hemicholinium lipids and use thereof” (Board of Supervisors, Louisiana State University …, priority 1992, dated 1993).

Experiments:
cell-cell aggregation = assay: Inhibition of cell-cell aggregation (method of Fritz et al.); type: cell-based
Text: Cell-cell aggregation studies by the method of Fritz et al., J. CeII.

CPT-II [1] = assay: CPT inhibition (spectrophotometric assay, CPT-II prepared from beef liver); type: biochemical; conditions: Ki 2 μM versus 10.4 μM
Protocol: (§1) Preparation: CPT-II was prepared from beef liver using the methods of P. R. H. Clarke and L. L. Bieber (1981) J. Biol. Chem., 256. 9861-9868.
(§2) In final volume of 1 ml, 20 mm KPO4^-, pH 7.4 at 30° C., 125 μM aldrithiol [4,4-dithio(bis)pyridine], 10 μM decanoyl-CoA, 10 μl enzyme (1.25 μg/ml) and inhibitor were preincubated at 30° C. for 1 min. and the reaction was initiated with L-carnitine. The absorbance change at 324 nm, followed in a spectrophotometer, was linear with time. L-carnitine conc. were 1 mM and 5 mM. H15C conc. ranged from 1.25 μM-12.5 μM (6values).

CPT-II [2] = target: T1, CPT-II (Bos taurus, UniProt Q2KJB7); assay: as above; type: biochemical; conditions: CPT-II from beef liver, 10 μM decanoyl-CoA, L-carnitine 1 mM and 5 mM, pH 7.4, 30° C.
T1 construct: CPT-II was prepared from beef liver; from tissue; host or cells: beef liver
T1 sequence (Q2KJB7 26-658): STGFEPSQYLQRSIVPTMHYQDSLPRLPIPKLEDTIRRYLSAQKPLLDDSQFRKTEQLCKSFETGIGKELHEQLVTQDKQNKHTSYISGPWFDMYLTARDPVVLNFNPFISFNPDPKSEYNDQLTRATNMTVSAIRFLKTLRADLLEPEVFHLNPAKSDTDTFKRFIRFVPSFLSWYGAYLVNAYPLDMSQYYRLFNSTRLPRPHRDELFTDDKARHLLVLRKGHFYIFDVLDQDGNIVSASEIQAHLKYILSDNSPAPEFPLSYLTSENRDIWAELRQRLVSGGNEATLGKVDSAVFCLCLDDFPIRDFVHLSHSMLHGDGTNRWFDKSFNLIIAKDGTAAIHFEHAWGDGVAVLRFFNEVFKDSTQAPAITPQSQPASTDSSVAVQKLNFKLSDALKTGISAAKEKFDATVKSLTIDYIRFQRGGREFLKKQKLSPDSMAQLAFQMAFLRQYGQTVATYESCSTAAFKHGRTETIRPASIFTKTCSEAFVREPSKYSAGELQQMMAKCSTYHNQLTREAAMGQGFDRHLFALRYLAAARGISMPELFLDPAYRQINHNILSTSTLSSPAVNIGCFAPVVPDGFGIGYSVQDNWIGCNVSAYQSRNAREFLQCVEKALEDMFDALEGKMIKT
Protocol: as §1, §2

Row | SMILES | Ki (cell-cell aggregation) [µM] | binding strength relative to palmitoylcholine (from Ki against CPT) (CPT-II [1]) | Ki (CPT-II [2]) [µM]
1 | CCCCCCCCCCCCCCC1(O)C[N+](C)(C)CCO1 (racemic) [Example 5, 2-Hydroxy-4,4-dimethyl-2,-tetradecylmorpholinium Bromide] | 1.5 |  | 
2 | CCCCCCCCCCCCC1(O)C[N+](C)(C)CCO1 (racemic) [Example 7, 2-Dodecyl-2-hydroxy-4,4-dimethylmorpholinium Bromide] | 12 |  | 
3 | CCCCCCCCCCCCCCCC1(O)C[N+](C)(C)CCO1.[Br-] (stereo not shown) [Example 4, 2Hydroxy-4,4-dimethyl-2-pentadecylmorpholinium Bromide] | 0.4 | five-fold stronger binding | 2
4 | CCCCCCCCCCCCCCCC(=O)C[N+](C)(C)CCCO [Example 9, N-(3-Hydroxypropyl)-N,N-dimethyl-N-(2-oxoheptadecyl)ammonium Bromide] | 0.75 |  | 
5 | CCCCCCCCCCCCCCCCC1(O)C[N+](C)(C)CCO1 (racemic) [Example 3, 2-Hexadecyl-2-hydroxy-4,4-dimethylmorpholinium Bromide] | 0.4 |  | 
